Where “and” joins values, the source holds several entries; their conditions need not be identical. Equal entries are not always repeated. Where two headings read alike, the source gives them in different places.
Tests used:
[1] = test system: neurons in CA1 and CA3 regions of the hippocampus; assay: Silver staining of hippocampal tissue; format: in vivo; details: PTZ model mice, compared with PTZ group
Experimental: Following the creation of the PTZ model, a modified version of the silver impregnation staining technique was applied for silver staining, enabling the observation of changes in neuronal fibers and synapses throughout diseases. Brain tissue slices from each mouse, encased in paraffin, underwent deparaffinization using xylene and absolute ethanol, followed by a treatment in acidic formaldehyde, and then incubation in a glycine–silver mixture. Following the application of a reducing solution for staining, the samples were analyzed using an optical microscope. Against a yellow backdrop, nerve cells’ axons, dendrites, collagen fibers, and neurofibrillary tangles were colored in dark brown or black.

[2] = test system: maximal electroshock (MES) induced seizures; assay: Maximal electroshock (MES) test; format: in vivo, mice; details: for responders at 100 mg/kg / ED50: Mus musculus, ip; for ED50: 95% confidence intervals in parentheses
Source text: (§1) Male Kunming mice (23–28 g) were maintained under controlled conditions with ad libitum access to standard pellet diet and water. Test compounds were formulated immediately prior to administration in normal saline containing 0.5% Tween-80. Our experiment was authorized by the Institutional Animal Care and Use Committee of Shaanxi University of Chinese Medicine (animal ethics certificate number: SUCMDL20210309027).
The MES test carried out following the method of Swinyard. A 60 Hz current (50 mA; 0.25 s duration) was delivered via corneal electrodes using a YSD-4G electro convulsion meter (Zhenghua Instruments, Huaibei, China, SN: ZH0056232). […] Test compounds were suspended in an identical vehicle. Protection was defined as abolition of tonic hindlimb extension.

[3] = Acute neurotoxicity screening (rotarod test); format: in vivo, mice; details: male, Kunming, mouse, in vivo, ip, 30 min post-administration, 95% confidence intervals in parentheses
Experimental: as §1
Neurotoxicity was assessed via a rotarod test. Mice were trained to maintain balance on a rotating rod (diameter: 4 cm; 24 rpm). Trained animals received i.p. injections of test compounds or reference drugs. At 30 min post-administration, neurologic impairment was defined as failure to remain on the rod for 3 min (≥3 falls within the testing period). Data were used to calculate TD50 values.

scPTZ-induced seizures = assay: Pentylenetetrazole (PTZ)-induced seizure test (scPTZ); format: in vivo; details: 100 mg/kg i.p., PTZ 85 mg/kg s.c., mice
Experimental: as §1
Seizures were induced by subcutaneous (s.c.) administration of PTZ (85 mg/kg in 1% v/v Tween-80/0.9% NaCl), 30 min after compound treatment. This dose produces clonic seizures (≥5 s duration) in 97% of naive mice. Latency to seizure onset was recorded during continuous observation.

[4] = test system: PTZ-induced epileptic spikes; assay: Electroencephalogram (EEG) after PTZ; format: in vivo, mice; details: 100 mg/kg i.p.
Source text: Mice sedated with urethane were subjected to aseptic craniotomy, involving the stereotaxic insertion of cortical screw electrodes aligned with bregma coordinates (anterior–posterior: +3.0 mm; mediolateral: ±1.5 mm) and a reference electrode (anterior–posterior: −2.0 mm; mediolateral: −1.5 mm). The electrodes were secured using dental acrylic, followed by a recovery period of 5–7 days for the animals before the instrumentation. The continuous EEG data were captured through using 8-channel bioamplifiers linked to a PowerLab 8/30 system (AD Instruments, Shanghai, China). After a 30 min acclimatization period in the recording chambers, initial activity levels were documented for 15–20 min. […] After 60 min, pentylenetetrazol (PTZ, 85 mg/kg i.p.) was administered, initiating seizure. Sampling of EEG signals occurred at a frequency of 200 Hz, utilizing a bandpass filter ranging from 0.1 to 60 Hz. Electrographic convulsions were characterized by spikes surpassing double the baseline amplitude, quantified by (1) the delay before the initial spike (seconds after PTZ); (2) the frequency of spikes (counts per 60 s period from the first spike) through established peak-detection methods.

LDH = assay: Immunofluorescence staining for LDH in hippocampus; format: in vivo; details: hippocampus CA1, PTZ model mice
Experimental: Brain samples were extracted, preserved in 4% paraformaldehyde for a day, and subsequently immersed in a 30% sucrose solution to dehydrate. Post OCT embedding, slices of brain tissue measuring 16 μm in thickness were sliced using a cryostat. Following the permeabilization using 0.5% TritonX-100 and subsequent blocking with 10% goat serum at ambient temperature to remove nonspecific staining, the tissue samples were subjected to overnight incubation at 4 °C with the primary antibody, LDHA (Proteintech (Rosemont, IL, USA), Cat No. 19987-1-AP, Lot: 00106920, rabbit anti-rat 1:200). On the next day, the slides underwent incubation using a secondary antibody. The slides underwent counterstaining using DAPI. […] slices were examined and visualized utilizing the VS200-BU Slide Scanner (Olympus Corporation, Tokyo, Japan).

LDH enzyme = assay: In vitro LDH assay; format: biochemical
Experimental: Employing the commercial LDH enzyme (Solarbio Life Science, Beijing, China, CAS:9001-60-9, Lot. Document No. 14240222001) includes a colorimetric assay kit designed to assess the synthesized substances’ capacity to suppress the LDH enzyme, using established techniques with slight alterations. In summary, a 96-well microplate was filled with 30 μL of LDH enzyme (300 U/mL) and 70 μL of the inhibitor mixture (0.1 mM in final concentration). Following a 10 min pre-incubation process at ambient temperature, […] of NADH (0.2 mM) was introduced. Subsequently, each well received 40 μL of phosphate buffer (20 mM, pH 6.8), reaching a total volume of 250 μL, followed by a 10 min incubation of the assay plate at 28 °C. Subsequently, […] absorbance was gauged at 340 nm utilizing a SpectraMax 190 Absorbance Microplate Reader (Molecular Devices, San Jose, CA, USA). […] In the initial screening, the level of suppression by the test substances was denoted as a percentage (%). The calculation for the LDH inhibition ratio was as follows:Inhibition (%) = [(Asample − Ablank)/Acontrol] × 100%
Asample denotes the OD340 absorbance of test compound and Ablank is the OD340 absorbance for the blank. Acontrol represents the OD340 absorbance of control.

[5] = 100 mg/kg i.p., mice, 0.5 h, read-out: MES model, protected mice/total mice, 0.5 h (converted)
[6] = 100 mg/kg i.p., mice, 1 h, read-out: MES model, protected mice/total mice, 1 h (converted)
[7] = 100 mg/kg i.p., mice, 2 h, read-out: MES model, protected mice/total mice, 2 h (converted)
[8] = 100 mg/kg i.p., mice, 3 h, read-out: MES model, protected mice/total mice, 3 h (converted)

Row | Molecule | ED50 ([2]; mice) [mg/kg] | TD50 at 30 min [3] [mg/kg] | SCPTZ Latent Time (100 mg/kg, s) (scPTZ-induced seizures) | SCPTZ Protective Ratio (100 mg/kg) (scPTZ-induced seizures) | LDH Inhibition Ratio (0.1 mM) (LDH enzyme) [%] | responders at 100 mg/kg [2, 5] [%] | responders at 100 mg/kg [2, 6] [%] | responders at 100 mg/kg [2, 7] [%] | responders at 100 mg/kg [2, 8] [%] | further results
1 | COc1cc(/C=C/C(=O)N2CCN(C(=O)CCC(=O)N3CCN(C(c4ccc(F)cc4)c4ccc(F)cc4)CC3)CC2)cc(OC)c1OC [B9, (E)-1-(4-(bis(4-fluorophenyl)methyl)piperazin-1-yl)-4-(4-(3-(3,4,5-trimethoxyphenyl)acryloyl)piperazin-1-yl)butane-1,4-dione] | 23.6 | 235 | 274.3 s and 274.3 ± 17.2 s | 3/4 |  |  |  |  |  | silver staining, neurons in hippocampal CA1 and CA3 [1]: alleviated symptoms; responders at 100 mg/kg ([2]; 0.5 h, read-out: MES model, protected mice/total mice, 0.5 h): 100%; responders at 100 mg/kg ([2]; 1 h, read-out: MES model, protected mice/total mice, 1 h): 75%; responders at 100 mg/kg ([2]; 2 h, read-out: MES model, protected mice/total mice, 2 h): 25%; responders at 100 mg/kg ([2]; 3 h, read-out: MES model, protected mice/total mice, 3 h): 0%; latency to the first PTZ-induced epileptic spike (EEG) ([4]; PTZ 85 mg/kg i.p. after 60 min): extended; spike frequency within 60 s post-initial spike (EEG) ([4]; compared to PTZ controls): significantly reduced; LDH immunolabelling intensity (LDH): lower than the values found in the PTZ group
2 | COc1cc(/C=C/C(=O)N2CCN(CCCC(=O)N3CCN(c4ccc(C(F)(F)F)cc4)CC3)CC2)cc(OC)c1OC [A14, (E)-1-(4-(4-(trifluoromethyl)phenyl)piperazin-1-yl)-4-(4-(3-(3,4,5-trimethoxyphenyl)acryloyl)piperazin-1-yl)butan-1-one] | 52.4 | 358 | 233.5 ± 18.3 s | 2/4 | 42.6 ± 7.3 | 100 | 100 | 75 | 25 | 
3 | COc1cc(/C=C/C(=O)N2CCN(CCCC(=O)N3CCN(C(c4ccc(F)cc4)c4ccc(F)cc4)CC3)CC2)cc(OC)c1OC [A9, (E)-1-(4-(bis(4-fluorophenyl)methyl)piperazin-1-yl)-4-(4-(3-(3,4,5-trimethoxyphenyl)acryloyl)piperazin-1-yl)butan-1-one] | 37.5 | 305 | 204.5 ± 12.6 s | 1/4 |  | 100 | 75 | 50 | 0 | 
4 | COc1cc(/C=C/C(=O)N2CCN(CCCC(=O)N3CCN(c4cccc(Cl)c4Cl)CC3)CC2)cc(OC)c1OC [A12, (E)-1-(4-(2,3-dichlorophenyl)piperazin-1-yl)-4-(4-(3-(3,4,5-trimethoxyphenyl)acryloyl)piperazin-1-yl)butan-1-one] | 54.7 | 284 | 161.5 ± 24.0 s | 0/4 | 41.9 ± 9.2 | 100 | 75 | 75 | 25 | 
5 | COc1cc(/C=C/C(=O)N2CCN(C(=O)CCC(=O)N3CCN(c4cccc(Cl)c4Cl)CC3)CC2)cc(OC)c1OC [B12, (E)-1-(4-(2,3-dichlorophenyl)piperazin-1-yl)-4-(4-(3-(3,4,5-trimethoxyphenyl)acryloyl)piperazin-1-yl)butane-1,4-dione] | 60.3 | 417 | 230.3 ± 17.4 s | 1/4 | 44.3 ± 6.5 | 100 | 75 | 25 | 25 | 
6 | COc1cc(OC)c(OC)cc1/C=C/COC(=O)CCCN1CCN(C(=O)/C=C/c2cc(OC)c(OC)c(OC)c2)CC1 [A5, (E)-3-(2,4,5-trimethoxyphenyl)allyl 4-(4-((E)-3-(3,4,5-trimethoxyphenyl)acryloyl)piperazin-1-yl)butanoate] |  |  |  |  |  | 75 | 75 | 50 | 0 | 
7 | (E)-3-(2,4,5-trimethoxyphenyl)allyl 4-oxo-4-(4-((E)-3-(3,4,5-trimethoxyphenyl)acryloyl)piperazin-1-yl)butanoate [B5] |  |  |  |  |  |  |  |  |  | MES model, protected mice/total mice, 0.5 h ([2]; 100 mg/kg i.p., mice, 0.5 h): 3/4; MES model, protected mice/total mice, 1 h ([2]; 100 mg/kg i.p., mice, 1 h): 3/4; MES model, protected mice/total mice, 2 h ([2]; 100 mg/kg i.p., mice, 2 h): 2/4; MES model, protected mice/total mice, 3 h ([2]; 100 mg/kg i.p., mice, 3 h): 0/4
8 | COc1cc(/C=C/C(=O)N2CCN(C(=O)CCC(=O)N3CCN(c4ccc(C(F)(F)F)cc4)CC3)CC2)cc(OC)c1OC [B14, (E)-1-(4-(4-(trifluoromethyl)phenyl)piperazin-1-yl)-4-(4-(3-(3,4,5-trimethoxyphenyl)acryloyl)piperazin-1-yl)butane-1,4-dione] |  |  |  |  |  | 75 | 75 | 50 | 0 | 
9 | C=CCc1ccccc1OC(=O)CCC(=O)N1CCN(C(=O)/C=C/c2cc(OC)c(OC)c(OC)c2)CC1 [B4, 2-allylphenyl (E)-4-oxo-4-(4-(3-(3,4,5-trimethoxyphenyl)acryloyl)piperazin-1-yl)butanoate] |  |  |  |  |  | 75 | 50 | 50 | 0 | 
10 | C=CCc1ccc(OC(=O)CCC(=O)N2CCN(C(=O)/C=C/c3cc(OC)c(OC)c(OC)c3)CC2)c(OC)c1 [B2, 4-allyl-2-methoxyphenyl (E)-4-oxo-4-(4-(3-(3,4,5-trimethoxyphenyl)acryloyl)piperazin-1-yl)butanoate] |  |  |  |  |  | 75 | 75 | 25 | 0 | 
